Results reported in patent publication USRE48461E1, “Modulation of androgen receptor expression” (Ionis Pharmaceuticals, Inc., priority 2012, dated 2021).
l = locked nucleic acid (LNA); d = 2'-deoxy (DNA)

Legend:
[1] = test system: total AR mRNA; assay: Total (full-length) AR mRNA in C4-2B MR cells, free uptake; assay type: cell-based, human; settings: free uptake, 24 hrs
Procedure: Cells were plated at a density of 40,000 cells per well in 96-well plates and cultured in RPMI1640 medium with 10% fetal bovine serum. […] ISIS 549372, ISIS 549458, ISIS 549434, and ISIS 554221 were each added at 0.04 μM, 0.20 μM, 1.00 μM, and 5.00 μM concentrations of antisense oligonucleotide to culture media for free uptake by the cells. […] After a treatment period of 24 hrs, total AR mRNA levels were measured by quantitative real-time PCR using primer probe set RTS3559.

[2] = test system: KLK3 mRNA; assay: KLK3 mRNA (AR target gene) in C4-2B MR cells; assay type: cell-based, human
[3] = test system: KLK2 mRNA; assay: KLK2 mRNA (AR target gene) in C4-2B MR cells; assay type: cell-based, human
[4] = test system: C4-2B MR cells; assay: Proliferation of MDV3100-resistant C4-2B cells (CellTiter 96); assay type: cell-based, human; settings: 6 days
Procedure: ISIS 549372, ISIS 549434, ISIS 549458, and ISIS 554221 were each added to the culture media at 0.04 μM, 0.20 μM, 1.00 μM, and 5.00 μM concentration of antisense oligonucleotide. ISIS 347526 was included as a negative control. After a treatment period of 6 days, the proliferative capacity of the cancer cells was measured with using CellTiter 96® AQueous One Solution Cell Proliferation kit (Promega), following the manufacturer's instructions. Results are presented in Table 41 as percent inhibition of proliferation, relative to non-treated cells.

[5] = test system: AR mRNA; assay: AR mRNA levels in LMR20 cells (with/without DHT or R1881); assay type: cell-based, human; settings: LMR20 cells; for AR mRNA levels (% baseline value) after treatment with DHT: DHT 10 nM 72 hrs; for AR mRNA levels (% baseline value) after treatment with R1881: R1881 10 nM 72 hrs; for AR mRNA levels (% baseline value) of cells without AR agonist treatment: no AR agonist
Procedure: (§1) LMR20 cells were plated at 1,500 cells per well in phenol red-free medium with CSS.

[6] = test system: prostate-specific antigen (PSA) mRNA; assay: PSA mRNA levels in LMR20 cells; assay type: cell-based, human; settings: LMR20 cells; for PSA mRNA levels (% baseline value) after treatment with DHT: DHT 10 nM 72 hrs; for PSA mRNA levels (% baseline value) after treatment with R1881: R1881 10 nM 72 hrs; for PSA mRNA levels (% baseline value) of cells without AR agonist treatment: no AR agonist
Procedure: LMR20 cells were plated at 1,500 cells per well in phenol red-free medium with CSS. […] Results are presented in Tables 43-45 as mRNA levels expressed as a percentage of the baseline values. mRNA levels may be lowered or increased after treatment.

[7] = test system: TMPRSS2 mRNA; assay: TMPRSS2 mRNA levels in LMR20 cells; assay type: cell-based, human; settings: LMR20 cells; for TMPRSS2 mRNA levels (% baseline value) after treatment with DHT: DHT 10 nM 72 hrs; for TMPRSS2 mRNA levels (% baseline value) after treatment with R1881: R1881 10 nM 72 hrs; for TMPRSS2 mRNA levels (% baseline value) of cells without AR agonist treatment: no AR agonist
Procedure: as §1

[8] = test system: AR mRNA; assay: AR mRNA in LnCaP cells by free uptake (hAR_LTS00943); assay type: cell-based, human; settings: 24 hrs
Procedure: Cells were plated at a concentration of 4,000 cells/well in 96-well plates. ISIS oligonucleotides, specified in Table 68, were added individually at 0.02 μM, 0.10 μM, 0.50 μM, 2.50 μM, or 10.00 μM. After an incubation period of 24 hrs, mRNA levels were measured using primer probe set hAR_LTS00943.

[9] = cynomolgus monkey, in vivo, sc, 40 mg/kg
[10] = cynomolgus monkey, in vivo, sc, 40 mg/kg; remark: listed apart in the source
[11] = cynomolgus monkey, in vivo, sc, 40 mg/kg; remark: listed apart in the source
[12] = cynomolgus monkey, in vivo, sc, 40 mg/kg; remark: listed apart in the source
[13] = cynomolgus monkey, in vivo, sc, 40 mg/kg; remark: listed apart in the source
Procedure: Prior to the study, the monkeys were kept in quarantine for a 30-day period, during which the animals were observed daily for general health. The monkeys were 2-4 years old and weighed between 2 and 4 kg. Thirteen groups of four randomly assigned male cynomolgus monkeys each were injected subcutaneously with ISIS oligonucleotide or PBS. PBS solution or ISIS oligonucleotides, at a dose of 40 mg/kg, were administered with a loading regimen consisting of four doses on the first week of the study (days 1, 3, 5, and 7), followed by a maintenance regimen consisting of once weekly administration starting on Day 14 (weeks 2 to 6). Subcutaneous injections were performed in clock-wise rotations at 4 sites on the back; one site per dose. The injection sites were delineated by tattoo, while sedated using ketamine, and were separated by a minimum of 3 cm.
Kidney function was also assessed by urinalysis. Fresh urine from all animals was collected on day 44 using a clean cage pan on wet ice. Food was removed overnight the day before fresh urine collection was done but water was supplied. The total protein and creatinine levels were measured using a Toshiba 120FR NEO automated chemistry analyzer (Toshiba Co., Japan) and the protein to creatinine ratio was calculated.

[14] = cynomolgus monkey, in vivo, sc, 40 mg/kg; remark: listed apart in the source
Procedure: The monkeys were 2-4 years old and weighed between 2 and 4 kg. Thirteen groups of four randomly assigned male cynomolgus monkeys each were injected subcutaneously with ISIS oligonucleotide or PBS. PBS solution or ISIS oligonucleotides, at a dose of 40 mg/kg, were administered with a loading regimen consisting of four doses on the first week of the study (days 1, 3, 5, and 7), followed by a maintenance regimen consisting of once weekly administration starting on Day 14 (weeks 2 to 6). Subcutaneous injections were performed in clock-wise rotations at 4 sites on the back; one site per dose. The injection sites were delineated by tattoo, while sedated using ketamine, and were separated by a minimum of 3 cm.
To evaluate any inflammatory effect of ISIS oligonucleotides in cynomolgus monkeys, the monkeys were fasted overnight. Approximately, 1.5 mL of blood samples were collected from all the study groups on day 44. Blood was collected in tubes without anticoagulant for serum separation. The tubes were kept at room temperature for a minimum of 90 min and then centrifuged at 3,000 rpm for 10 min. C-reactive protein (CRP), which is synthesized in the liver and which serves as a marker of inflammation, was measured on day 43 using a Toshiba 120FR NEO chemistry analyzer (Toshiba Co., Japan). Complement C3 was also measured similarly, and the data is presented as a percentage of baseline values.

## 554221 (ACCAAGTTTCTTCAGC; sugars from the 5' end l3 d10 l3, all phosphorothioate, methylation of C not given here) [compound 554221]
[1]; 0.04 μM
  Percent inhibition of full-length AR mRNA in C4-2B MR cells: 0%
[1]; 0.20 μM
  Percent inhibition of full-length AR mRNA in C4-2B MR cells: 0%
[1]; 1.00 μM
  Percent inhibition of full-length AR mRNA in C4-2B MR cells: 0%
[1]; 5.00 μM
  Percent inhibition of full-length AR mRNA in C4-2B MR cells: 23%
[2]; 0.04 μM
  Percent inhibition of KLK3 mRNA in C4-2B MR cells: 0%
[2]; 0.20 μM
  Percent inhibition of KLK3 mRNA in C4-2B MR cells: 0%
[2]; 1.00 μM
  Percent inhibition of KLK3 mRNA in C4-2B MR cells: 47%
[2]; 5.00 μM
  Percent inhibition of KLK3 mRNA in C4-2B MR cells: 56%
[3]; 0.04 μM
  Percent inhibition of KLK2 mRNA in C4-2B MR cells: 24%
[3]; 0.20 μM
  Percent inhibition of KLK2 mRNA in C4-2B MR cells: 25%
[3]; 1.00 μM
  Percent inhibition of KLK2 mRNA in C4-2B MR cells: 56%
[3]; 5.00 μM
  Percent inhibition of KLK2 mRNA in C4-2B MR cells: 66%
[4]; 0.04 μM
  Percent inhibition of C4-2B MR cell proliferation: 11%
[4]; 0.20 μM
  Percent inhibition of C4-2B MR cell proliferation: 12%
[4]; 1.00 μM
  Percent inhibition of C4-2B MR cell proliferation: 0%
[4]; 5.00 μM
  Percent inhibition of C4-2B MR cell proliferation: 24%
[5]; ASO 0.04 μM
  AR mRNA levels (% baseline value) after treatment with DHT: 137 % baseline value
  AR mRNA levels (% baseline value) after treatment with R1881: 131 % baseline value
  AR mRNA levels (% baseline value) of cells without AR agonist treatment: 124 % baseline value
[5]; ASO 0.20 μM
  AR mRNA levels (% baseline value) after treatment with DHT: 135 % baseline value
  AR mRNA levels (% baseline value) after treatment with R1881: 133 % baseline value
  AR mRNA levels (% baseline value) of cells without AR agonist treatment: 140 % baseline value
[5]; ASO 1.0 μM
  AR mRNA levels (% baseline value) after treatment with DHT: 136 % baseline value
  AR mRNA levels (% baseline value) after treatment with R1881: 124 % baseline value
  AR mRNA levels (% baseline value) of cells without AR agonist treatment: 132 % baseline value
[5]; ASO 5.0 μM
  AR mRNA levels (% baseline value) after treatment with DHT: 100 % baseline value
  AR mRNA levels (% baseline value) after treatment with R1881: 99 % baseline value
  AR mRNA levels (% baseline value) of cells without AR agonist treatment: 98 % baseline value
[6]; ASO 0.04 μM
  PSA mRNA levels (% baseline value) after treatment with DHT: 97 % baseline value
  PSA mRNA levels (% baseline value) after treatment with R1881: 100 % baseline value
  PSA mRNA levels (% baseline value) of cells without AR agonist treatment: 106 % baseline value
[6]; ASO 0.20 μM
  PSA mRNA levels (% baseline value) after treatment with DHT: 86 % baseline value
  PSA mRNA levels (% baseline value) after treatment with R1881: 93 % baseline value
  PSA mRNA levels (% baseline value) of cells without AR agonist treatment: 118 % baseline value
[6]; ASO 1.0 μM
  PSA mRNA levels (% baseline value) after treatment with DHT: 64 % baseline value
  PSA mRNA levels (% baseline value) after treatment with R1881: 80 % baseline value
  PSA mRNA levels (% baseline value) of cells without AR agonist treatment: 58 % baseline value
[6]; ASO 5.0 μM
  PSA mRNA levels (% baseline value) after treatment with DHT: 64 % baseline value
  PSA mRNA levels (% baseline value) after treatment with R1881: 57 % baseline value
  PSA mRNA levels (% baseline value) of cells without AR agonist treatment: 87 % baseline value
[7]; ASO 0.04 μM
  TMPRSS2 mRNA levels (% baseline value) after treatment with DHT: 121 % baseline value
  TMPRSS2 mRNA levels (% baseline value) after treatment with R1881: 136 % baseline value
  TMPRSS2 mRNA levels (% baseline value) of cells without AR agonist treatment: 95 % baseline value
[7]; ASO 0.20 μM
  TMPRSS2 mRNA levels (% baseline value) after treatment with DHT: 118 % baseline value
  TMPRSS2 mRNA levels (% baseline value) after treatment with R1881: 134 % baseline value
  TMPRSS2 mRNA levels (% baseline value) of cells without AR agonist treatment: 117 % baseline value
[7]; ASO 1.0 μM
  TMPRSS2 mRNA levels (% baseline value) after treatment with DHT: 122 % baseline value
  TMPRSS2 mRNA levels (% baseline value) after treatment with R1881: 125 % baseline value
  TMPRSS2 mRNA levels (% baseline value) of cells without AR agonist treatment: 77 % baseline value
[7]; ASO 5.0 μM
  TMPRSS2 mRNA levels (% baseline value) after treatment with DHT: 114 % baseline value
  TMPRSS2 mRNA levels (% baseline value) after treatment with R1881: 122 % baseline value
  TMPRSS2 mRNA levels (% baseline value) of cells without AR agonist treatment: 73 % baseline value
[8]; 0.02 μM
  Percent inhibition of AR mRNA: 0%
[8]; 0.1 μM
  Percent inhibition of AR mRNA: 0%
[8]; 0.5 μM
  Percent inhibition of AR mRNA: 0%
[8]; 10 μM
  Percent inhibition of AR mRNA: 17%

## ISIS 583918: antisense compound targeted to human AR (AGTCGCGACTCTGGTA; 3-10-3 (S)-cEt gapmer, further chemistry not given here)
[9]
  Body Wt: 2.5 kg
  Heart weight: 8.9 g
  Kidney weight: 12 g
  Liver weight: 60 g
  Mesenteric lymph nodes weight: 3.5 g
  Spleen weight: 4.6 g
[10]
  ALT: 75 IU/L
  AST: 73 IU/L
  Albumin: 4.1 g/dL
[11]
  HCT: 46%
  Hemoglobin: 13.3 g/dL
  Platelets: 435000 µL
  RBC: 5.8e+06 µL
  WBC: 12700 µL
[12]
  Plasma BUN: 24.5 mg/dL
  Plasma Creatinine: 0.87 mg/dL
[13]
  Urine protein/creatinine ratio: 0.01
[14]
  C3 (% of baseline): 89 % of baseline
  CRP: 3.5 mg/dL
